Assay [1] concerns the target T1, Endothelin receptor type B (Rattus norvegicus, UniProt P21451).
T1 sequence (P21451 whole entry): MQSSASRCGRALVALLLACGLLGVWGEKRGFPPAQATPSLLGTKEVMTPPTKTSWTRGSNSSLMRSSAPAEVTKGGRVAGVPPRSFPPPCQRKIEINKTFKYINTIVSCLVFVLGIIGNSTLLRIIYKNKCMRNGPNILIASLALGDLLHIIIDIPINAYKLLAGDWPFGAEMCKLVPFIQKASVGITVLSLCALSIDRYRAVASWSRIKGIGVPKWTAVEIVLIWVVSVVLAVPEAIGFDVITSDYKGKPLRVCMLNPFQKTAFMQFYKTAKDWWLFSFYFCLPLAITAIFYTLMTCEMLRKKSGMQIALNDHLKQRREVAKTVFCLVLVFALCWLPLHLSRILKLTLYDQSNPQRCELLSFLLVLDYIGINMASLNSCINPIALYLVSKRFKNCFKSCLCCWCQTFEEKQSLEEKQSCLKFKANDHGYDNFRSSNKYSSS
Put plainly: Displacement of [125I]ET1 from Endothelin B receptor of rat cerebellum. Type of assay: tissue-based. On the technique in general: In a radioligand displacement assay an active substance lowers the binding of a labelled ligand.

Assay [2] deals with Endothelin A receptor (Oryctolagus cuniculus). The experiment in a line: Displacement of [125I]-ET-1 from Endothelin A receptor of rabbit renal artery vascular smooth muscle cells.
The species entered for assay [3] is Oryctolagus cuniculus. Put plainly: Compound was tested for its inhibition of ET-1 induced arachidonic acid accumulation in rabbit renal artery vascular smooth muscle cells. Type of assay: functional.

These results are taken from ChEMBL document CHEMBL1127199, “Design of C-terminal peptide antagonists of endothelin: structure-activity relationships of ET-[1621, D-His16]” (Bioorg Med Chem Lett, 1993).

Where a SMILES comes first, the peptide text is derived from it. [ ]: non-standard residue; d: D form. Some results are limits rather than exact numbers.

For the compound `CC[C@H](C)[C@H](NC(=O)[C@H](CC(=O)O)NC(=O)[C@H](CC(C)C)NC(=O)[C@H](Cc1c[nH]cn1)NC(C)=O)C(=O)N[C@H](C(=O)N[C@@H](Cc1c[nH]c2ccccc12)C(=O)O)[C@@H](C)CC` (Ac-HLDIIW-OH), in assay [1], the IC50 (as a rule, the concentration that inhibits the measured activity by half) was over 50000 nM.
The compound `CC[C@H](C)[C@H](NC(=O)[C@H](CC(=O)O)NC(=O)[C@@H](Cc1ccccc1)NC(C)=O)C(=O)N[C@H](C(=O)N[C@@H](Cc1c[nH]c2ccccc12)C(=O)O)[C@@H](C)CC` (Ac-[dF]DIIW-OH) registered an IC50 in assay [2] of 9100 nM.
In the case of `CC[C@H](C)[C@H](NC(=O)[C@H](CC(=O)O)NC(=O)[C@H](CCC(=O)O)NC(=O)[C@@H](Cc1ccccc1)NC(C)=O)C(=O)N[C@H](C(=O)N[C@@H](Cc1c[nH]c2ccccc12)C(=O)O)[C@@H](C)CC` (Ac-[dF]EDIIW-OH), in assay [3], the IC50 came out at 600 nM.
The compound `CC[C@H](C)[C@H](NC(=O)[C@H](CC(=O)O)NC(=O)[C@H](Cc1ccccc1)NC(=O)[C@@H](Cc1ccccc1)NC(C)=O)C(=O)N[C@H](C(=O)N[C@@H](Cc1c[nH]c2ccccc12)C(=O)O)[C@@H](C)CC` (Ac-[dF]FDIIW-OH) returned an IC50 in assay [1] of 50 nM. In other words, the double-digit nanomolar range.
Regarding `CC[C@H](C)[C@H](NC(=O)[C@H](CC(=O)O)NC(=O)[C@H](CC(C)C)NC(=O)[C@@H](Cc1ccccc1)NC(C)=O)C(=O)N[C@H](C(=O)N[C@@H](Cc1c[nH]c2ccccc12)C(=O)O)[C@@H](C)CC` (Ac-[dF]LDIIW-OH), the IC50 in assay [1] amounted to 140 nM.
Take `CC[C@H](C)[C@H](NC(=O)[C@H](CC(=O)O)NC(=O)[C@@H](Cc1ccccc1)NC(=O)[C@@H](Cc1ccccc1)NC(C)=O)C(=O)N[C@H](C(=O)N[C@@H](Cc1c[nH]c2ccccc12)C(=O)O)[C@@H](C)CC` (Ac-[dF][dF]DIIW-OH): the IC50 in assay [3] came to 1600 nM; in assay [1] it was 30 nM.
